Our source for the Km values is patent US11591631B2, “Glucose monitoring method and glucose sensor” (TOYOBO CO., LTD., priority 2017, dated 2023).

Read-outs that look alike come from different tables or passages of the source.

Data set [1] deals with FADGDH GDH-4, SEQ ID No. 4 (SEQ ID No. 1 of JP2015-146773A). Put plainly: Michaelis constant of GDH-4 in aqueous system (DCPIP/PMS, Lineweaver-Burk plot). The class given is biochemical. The following applies: pH 6.5, 37° C. On the procedure: (§1) In the present invention, the activity of glucose dehydrogenase is defined using, as 1 unit (U), the amount of enzyme that reduces 1 micromole of DCPIP per minute in the presence of a substrate according to a method using a reagent having the following formulation.
(§2) 50 mM PIPES buffer (pH: 6.5; containing 0.1% TritonX-100)
(§3) 2 mM 2,5-dichlorophenolindophenol (DCPIP) solution
(§4) First, 3 ml of reaction reagent is pre-warmed at 37° C. for 5 minutes. 0.1 ml of GDH solution is added thereto, and the resulting mixture is gently mixed. Then, the change in absorbance at 600 nm is record for 5 minutes by a spectrophotometer adjusted at 37° C. with water as a control, and the change in absorbance per minute (ΔODTEST) is measured from the straight line portion. In a blind test, a solvent that dissolves GDH is added to the reagent mixture, instead of the GDH solution, and the change in absorbance per minute (ΔODBLANK) is similarly measured. From these values, GDH activity is determined according to the following formula. […] Activity (U/ml)={−(ΔODTEST−ΔODBLANK)×3.0×dilution magnification}/{16.3×0.1×1.0} […]

For data set [2], the system named is FADGDH GDH-2, SEQ ID No. 2 (SEQ ID No. 1 of JP2013-116102A). In words: Michaelis constant of GDH-2 in aqueous system (DCPIP/PMS, Lineweaver-Burk plot). The class given is biochemical. Conditions: pH 6.5, 37° C., Lineweaver-Burk at 30, 50, 100, 200 mM, read-out: Michaelis constant (Km) for glucose. On the procedure: as §1, §2, §3, §4
Data set [3] has as its system FADGDH GDH-3, SEQ ID No. 3 (SEQ ID No. 1 of JP4649993B). Put plainly: Michaelis constant of GDH-3 in aqueous system (DCPIP/PMS, Lineweaver-Burk plot). The following applies: pH 6.5, 37° C., Lineweaver-Burk at 30, 50, 100, 200 mM, read-out: Michaelis constant (Km) for glucose. Format: biochemical, Mucor prainii. On the procedure: as §1, §2, §3, §4
For data set [4], the system named is modified FADGDH GDH-5, random mutant of FADGDH of SEQ ID No. 5. Put plainly: Michaelis constant of GDH-5 in aqueous system (DCPIP/PMS, Lineweaver-Burk plot). The class given is biochemical. Conditions: pH 6.5, 37° C., Lineweaver-Burk at 30, 50, 100, 200 mM, read-out: Michaelis constant (Km) for glucose. On the procedure:
as §1, §2, §3, §4

The test system of data set [5] is modified FADGDH GDH-6, random mutant of FADGDH of SEQ ID No. 5. In words: Michaelis constant of GDH-6 in aqueous system (DCPIP/PMS, Lineweaver-Burk plot). Format: biochemical. Conditions: pH 6.5, 37° C., Lineweaver-Burk at 30, 50, 100, 200 mM, read-out: Michaelis constant (Km) for glucose. As for the experimental part:
as §1, §2, §3, §4

The subject of data set [6] is FADGDH enzymes of Table 1 (GDH-1 to GDH-4). Put plainly: Km for D-glucose of the enzymes listed in Table 1. The class given is biochemical. The following applies: read-out: Km for D-glucose; range over the enzymes listed in Table 1. As for the experimental part: as §1
First, 3 ml of reaction reagent is pre-warmed at 37° C. for 5 minutes. 0.1 ml of GDH solution is added thereto, and the resulting mixture is gently mixed. Then, the change in absorbance at 600 nm is record for 5 minutes by a spectrophotometer adjusted at 37° C. with water as a control, and the change in absorbance per minute (ΔODTEST) is measured from the straight line portion. In a blind test, a solvent that dissolves GDH is added to the reagent mixture, instead of the GDH solution, and the change in absorbance per minute (ΔODBLANK) is similarly measured. From these values, GDH activity is determined according to the following formula. […] Activity (U/ml)={−(ΔODTEST−ΔODBLANK)×3.0×dilution magnification}/{16.3×0.1×1.0}
GDH-3 is obtained by genetically engineering and expressing GDH having an amino acid sequence of SEQ ID No. 3 (the amino acid sequence represented by SEQ ID No. 1 of JP4649993B) using the Cryptococcus sp. S-2 D11 strain (FERM BP-11482) described in JP5588578B. […]

Substrate in data set [7]: OC1OC[C@@H](O)[C@H](O)[C@H]1O
Put plainly: purified protein, by the assay type. The following applies: other: pH 6.5, 37° C., aqueous system, Lineweaver-Burk.

Substrate in data set [8]: OC[C@H]1OC(O)[C@H](O)[C@@H](O)[C@@H]1O
In words: purified protein, by the assay type. The following applies: other: pH 6.5, 37° C., aqueous system, Lineweaver-Burk at 30, 50, 100, 200 mM.

`OC1OC[C@@H](O)[C@H](O)[C@H]1O` (stereo partly drawn) [D-xylose]: the Michaelis constant (Km) (in general, the concentration of substrate that gives half-maximal velocity) in data set [1] (Lineweaver-Burk, read-out: Michaelis constant (Km) for xylose) amounted to 82 mM.

Turning to `OC[C@H]1OC(O)[C@H](O)[C@@H](O)[C@@H]1O` (stereo partly drawn) [D-glucose], the Km was 16 mM in data set [2]; 31 mM in data set [3]; 14 mM in data set [1] (Lineweaver-Burk at 30, 50, 100, 200 mM, read-out: Michaelis constant (Km) for glucose); 80 mM in data set [4]; 82 mM in data set [5]; 14 to 82 mM in data set [6].

B1: FADGDH GDH-1, SEQ ID No. 1 (encoded by SEQ ID No. 8 of JP527482B) (Aspergillus oryzae) (protein)
chain: MKNTTTYDYIVVGGGTSGLVVANRLSENPDVSVLLLEAGASVFNNPDVTNANGYGLAFGSAIDWQYQSINQSYAGGKQQVLRAGKALGGTSTINGMAYTRAEDVQIDVWQKLGNEGWTWKDLLPYYLKSENLTAPTSSQVAAGAAYNPAVNGKEGPLKVGWSGSLASGNLSVALNRTFQAAGVPWVEDVNGGKMRGFNIYPSTLDVDLNVREDAARAYYFPYDDRKNLHLLENTTANRLFWKNGSAEEAIADGVEITSADGKVTRVHAKKEVIISAGALRSPLILELSGVGNPTILKKNNITPRVDLPTVGENLQDQFNNGMAGEGYGVLAGASTVTYPSISDVFGNETDSIVASLRSQLSDYAAATVKVSNGHMKQEDLERLYQLQFDLIVKDKVPIAEILFHPGGGNAVSSEFWGLLPFARGNIHISSNDPTAPAAINPNYFMFEWDGKSQAGIAKYIRKILRSAPLNKLIAKETKPGLSEIPATAADEKWVEWLKANYRSNFHPVGTAAMMPRSIGGVVDNRLRVYGTSNVRVVDASVLPFQVCGHLVSTLYAVAERASDLIKEDAKSA
Consider B1, for which the Km in data set [7] was determined as 39 mM; in data set [8], 68 mM.
